Data reported in patent US20090305994A1, “Compounds Modulating Vegf Receptor and Uses Thereof” (priority 2005, published 2009).

Legend:
Human endothelial cells = experiment: Angiogenesis in vitro assay (Angiokit, tubule formation, CD31 staining); assay type: cell-based; conditions: eleventh day
Method: In vitro angiogenic properties of QK. Human endothelial cells were co-cultured with other human cells in a specially designed medium in a 24 well plate. Every three days, QK alone or a combination of QK and VEGF165 (100 ng/ml) was added to the cultures. On the eleventh day, cells were fixed with ice cold 70% ethanol and tubule formation was visualized by staining for anti-human CD31 (PECAM-1).
Angiogenesis in vitro assay. Human endothelial cells were co-cultured with other human cells in a specially designed medium (Angiokit, TCS CellWorks), in a 24 well plates. Every three days, QK in absence or in presence of VEGF165 was added to the cultures. VEGF and suramine (20 μM) were used as positive and negative controls respectively. […] On the eleventh day, cells were fixed with ice cold 70% ethanol and tubule formation was visualized by staining for anti-human CD31 (PECAM-1). Results were scored with the image analysis software, Angiosys software (TCS CellWorks).
In vitro angiogenesis assay. […] Tubule formation was evaluated by positive staining for CD31/PECAM-1, an intercellular adhesion molecule involved in leucocytes diapedesis. We determined the number of cell junctions corrected by the total tubules length.

BAEC = experiment: Cells proliferation assay (cell number); assay type: cell-based, bovine; conditions: 24 hours
Method: Effect of QK on cell proliferation. a) DNA synthesis. BAEC were incubated in DMEM with [^3H]-thymidine and QK in absence or in presence of VEGF165 (100 ng/ml). After 24 hours cells were fixed and lysed. Scintillation liquid was added and [^3H]-thymidine incorporation was evaluated. b) Cell proliferation. BAEC were stimulated with the indicated amount of QK in absence or in presence of VEGF165 (100 ng/ml). Cell number was determined at 24 hours after stimulation. c) RB phosphorylation. p-RB was evaluated at 12 and 18 hours after stimulation with QK (10^-6M), VEGF165 (100 ng/ml) and VEGF 15 (10^−6 M).
Cells proliferation assay. Cells were seeded at a density of 10000 per well in six well plates, serum starved overnight and then stimulated with QK (10-12 to 10^−6 M) in absence or in presence of VEGF165. Cell number was determined at 24 hours after stimulation. The p-RB, was evaluated by western blot 12 and 18 hours after stimulation with QK (10^−6 M), VEGF165 and VEGF 15 (10^−6 M).

ERK1/2 = ERK1/2 activation in BAEC (western blot); assay type: cell-based, bovine
Method: Effect of QK and VEGF15 on ERK1/2 activation. Serum deprived BAEC were treated with QK (a) or with VEGF 15 (b) in absence or in presence of VEGF165 (100 ng/ml) for 15 minutes at 37° C. and then dissolved in RIPA-SDS buffer. Total ERK1/2 and the phosphorylated form of ERK1/2 were visualized by specific antibodies.
Western blot. Cells were plated on six-well dishes and serum starved overnight. On the next day, cells were treated with different amount of peptide in absence or in presence of VEGF165 for 15 minutes at 37° C. and then dissolved in RIPA-SDS buffer (50 mM Tris-HCl (pH 7.5), 150 mM NaCl, 1% NP-40, 0.25% deoxycholate, 9.4 mg/50 ml sodium orthovanadate, […]). In some experiments, total KDR and Flt-1 were immunoprecipitated from an equal amount of whole-cell protein extracts using protein A/G agarose beads conjugated with antibodies raised against total KDR or Flt-1 (R&D). Proteins from whole-cell extracts or immunocomplexes were resolved by PAGE and transferred to nitrocellulose. Total extracellular signal-regulated kinase 1 and 2 (ERK1/2), serine-tyrosin phosphorylated ERK1/2, phospho-tyrosine (Cell signaling) and phospho-RB (p-RB) (Santacruz) were visualized by specific antibodies, anti-rabbit HRP-conjugated secondary antibody (Santacruz) and standard chemiluminescence (Pierce).
Activation of the proliferative intracellular pathways. We then explored whether QK is able to start the pathways of endothelial cell activation. It is well established that angiogenesis modulate by VEGF is largely ERK1/2 dependent, leading to DNA synthesis and cell proliferation (7). Accordingly, we assessed the effects of QK on this kinase. […] To verify whether ERK1/2 activation to QK results in cell proliferation, we studied cell proliferation indicators such as cell number, DNA synthesis and cyclin activation.

KLTWQELYQLKYKGI [QK]
formation of new connections (Human endothelial cells; peptide alone): induced the formation of new connections in a dose dependent manner
formation of new connections in presence of VEGF165 (Human endothelial cells; with VEGF165 100 ng/ml): enhanced the response to VEGF165
cell proliferation (cell number) (BAEC; peptide alone): produces cell proliferation per se
cell proliferation in presence of VEGF (BAEC; with VEGF165 100 ng/ml): enhances VEGF response
ERK1/2 activation in presence of VEGF (ERK1/2; BAEC, with VEGF165 100 ng/ml, 15 minutes): additive to VEGF
ERK1/2 activation (ERK1/2; serum deprived BAEC, 15 minutes at 37° C.): leaded to ERK1/2 activation in a dose dependent fashion
